Laboratory results from patent US6969730B2, “Amines as histamine-3 receptor ligands and their therapeutic applications” (Abbott Laboratories, priority 2001, dated 2005).

Molecular target: T1, histamine-3 receptors (H3 receptor) (Rattus norvegicus, UniProt Q9QYN8)
T1 construct: from tissue; host or cells: male Sprague-Dawley rat brain cortex membranes
Assay: (3H)-N-α-methylhistamine binding to rat cortical membranes (histamine-3 receptor ligands)
Conditions: male Sprague-Dawley rat brain cortical membranes; (3H)-N-α-methylhistamine ~0.6 nM; 30 minutes at 25° C.; Cheng-Prusoff
Protocol: Briefly, male Sprague-Dawley rat brain cortices were homogenized (1 g tissue/10 mL buffer) in 50 mM Tris-HCl/5 mM EDTA containing protease inhibitor cocktail (Calbiochem) using a polytron set at 20,500 rpm. Homogenates were centrifuged for 20 minutes at 40,000×g. The supernatant was decanted, and pellets were weighed. The pellet was resuspended by polytron homogenization in 40 mL 50 mM Tris-HCl/5 mM EDTA with protease inhibitors and centrifuged for 20 minutes at 40,000×g. […] Rat cortical membranes (12 mg wet weight/tube) were incubated with (^3H)-N-α-methylhistamine (˜0.6 nM) with or without H3 receptor antagonists in a total incubation volume of 0.5 mL of 50 mM Tris-HCl/5 mM EDTA (pH 7.7). Test compounds were dissolved in DSMO to provide a 20 mM solution, serially diluted and then added to the incubation mixture prior to initiating the incubation assay by addition of the membranes. Thioperamide (3 μM) was used to determine nonspecific binding. Binding incubations were conducted for 30 minutes at 25° C. and terminated by addition of 2 mL of ice cold 50 mM Tris-HCl (pH 7.7) and filtration through 0.3% polyethylenimine-soaked Unifilter plates (Packard). These filters were washed 4 additional times with 2 mL of ice-cold 50 mM Tris-HCl and dried for 1 hour. Radioactivity was determined using liquid scintillation counting techniques. Results were analyzed by Hill transformation and Ki values were determined using the Cheng-Prusoff equation.

T1 sequence (Q9QYN8 whole entry): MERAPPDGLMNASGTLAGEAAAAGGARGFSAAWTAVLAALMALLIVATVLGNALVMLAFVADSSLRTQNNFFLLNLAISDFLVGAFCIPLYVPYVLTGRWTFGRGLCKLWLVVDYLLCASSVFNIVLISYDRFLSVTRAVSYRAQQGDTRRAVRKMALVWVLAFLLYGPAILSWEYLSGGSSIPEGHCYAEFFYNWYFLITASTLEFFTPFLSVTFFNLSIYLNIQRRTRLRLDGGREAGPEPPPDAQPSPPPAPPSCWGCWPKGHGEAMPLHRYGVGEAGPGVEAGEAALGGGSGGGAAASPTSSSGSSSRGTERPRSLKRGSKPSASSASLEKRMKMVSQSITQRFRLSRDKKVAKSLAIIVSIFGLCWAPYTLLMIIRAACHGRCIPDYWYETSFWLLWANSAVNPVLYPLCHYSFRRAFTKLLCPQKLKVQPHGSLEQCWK

| Compound | Ki [nM] |
| --- | --- |
| (2S)-1-(2-{5-[5-(4-morpholinylcarbonyl)-2-pyridinyl]-1-benzofuran-2-yl}ethyl)-2-pyrrolidinol [Example 62] | 112 |
| O=C(c1ccc(-c2ccc3oc(CCNCCCO)cc3c2)nc1)N1CCOCC1 [Example 64, 3-[(2-{5-[5-(4-morpholinylcarbonyl)-2-pyridinyl]-1-benzofuran-2-yl}ethyl)amino]-1-propanol] | ≥ 1000 |
| C[C@@H]1CCCN1CCc1cc2cc(-c3noc(-c4ccccc4)n3)ccc2o1 [Example 94, 3-(2-{2-[(2R)-2-methylpyrrolidin-1-yl]ethyl}-1-benzofuran-5-yl)-5-phenyl-1,2,4-oxadiazole] | 16 |
| C[C@@H]1CCCN1CCc1cc2cc(-c3ccc(C(F)(F)F)cc3)ccc2o1 [Example 127, (2R)-2-methyl-1-(2-{5-[4-(trifluoromethyl)phenyl]-1-benzofuran-2-yl}ethyl)pyrrolidine] | 120 |
| C[C@@H]1CCCN1CCc1cc2cc(-c3noc(-c4ccc(C#N)cc4)n3)ccc2o1 [Example 88, 4-[3-(2-{2-[(2R)-2-methylpyrrolidin-1-yl]ethyl}-1-benzofuran-5-yl)-1,2,4-oxadiazol-5-yl]benzonitrile] | 64 |
| O=C(c1ccc(-c2ccc3oc(CCN4CCC[C@H]4CO)cc3c2)cc1)N1CCOCC1 [Example 34] | 6.89 |
| 4-(6-methyl-2-{2-[(2R)-2-methyl-1-pyrrolidinyl]ethyl}-1-benzofuran-5-yl)benzonitrile and 4-(4-methyl-2-{2-[(2R)-2-methyl-1-pyrrolidinyl]ethyl}-1-benzofuran-5-yl)benzonitrile [Example 108] | 8 |
| C[C@@H]1CCCN1CCc1cc2cc(-c3cccc(OC(F)(F)F)c3)ccc2o1 [Example 128, (2R)-2-methyl-1-(2-{5-[3-(trifluoromethoxy)phenyl]-1-benzofuran-2-yl}ethyl)pyrrolidine] | 110 |
| C[C@@H]1CCCN1CCc1cc2cc(-c3cccc(C(F)(F)F)c3)ccc2o1 [Example 126, (2R)-2-methyl-1-(2-{5-[3-(trifluoromethyl)phenyl]-1-benzofuran-2-yl}ethyl)pyrrolidine] | 81 |
| Cc1cc(C#N)ccc1-c1ccc2oc(CCN3CCC[C@H]3C)cc2c1 [Example 107, 3-methyl-4-(2-{2-[(2R)-2-methyl-1-pyrrolidinyl]ethyl}-1-benzofuran-5-yl)benzonitrile] | 8 |
| C[C@@H]1CCCN1CCc1cc2cc(-c3noc(CCl)n3)ccc2o1 [Example 97, 5-(chloromethyl)-3-(2-{2-[(2R)-2-methylpyrrolidin-1-yl]ethyl}-1-benzofuran-5-yl)-1,2,4-oxadiazole] | 1.4 |
| CC[C@@H]1CCCN1CCc1cc2cc(-c3ccc(C#N)cc3)ccc2o1 [Example 163, 4-(2-{2-[(2R)-2-ethyl-1-pyrrolidinyl]ethyl}-1-benzofuran-5-yl)benzonitrile] | 3.7 |
| C[C@@H]1CCCN1CCc1cc2cc(-c3noc(Cc4ccc(F)cc4)n3)ccc2o1 [Example 91, 5-(4-fluorobenzyl)-3-(2-{2-[(2R)-2-methylpyrrolidin-1-yl]ethyl}-1-benzofuran-5-yl)-1,2,4-oxadiazole] | 10 |
| CC(=O)c1c(CCN2CCC[C@H]2C)oc2ccc(-c3ccc(C#N)cc3)cc12 [Example 159, 4-(3-acetyl-2-{2-[(2R)-2-methyl-1-pyrrolidinyl]ethyl}-1-benzofuran-5-yl)benzonitrile] | 14 |
| CC(=NO)c1cccc(-c2ccc3oc(CCN4CCC[C@H]4C)cc3c2)c1 [Example 139, 1-[3-(2-{2-[(2R)-2-methyl-1-pyrrolidinyl]ethyl}-1-benzofuran-5-yl)phenyl]ethanone oxime] | 3.1 |
| Cc1cc(-c2ccc3oc(CCN4CCC[C@H]4C)cc3c2)ccc1C#N [Example 106, 2-methyl-4-(2-{2-[(2R)-2-methyl-1-pyrrolidinyl]ethyl}-1-benzofuran-5-yl)benzonitrile] | 2.3 |
| C[C@@H]1CCCN1CCc1cc2cc(-c3cccc(C#N)c3)ccc2o1 [Example 112, 3-(2-{2-[(2R)-2-methyl-1-pyrrolidinyl]ethyl}-1-benzofuran-5-yl)benzonitrile] | 3 |
